Reference: ChEMBL document CHEMBL1136897, “Predictive models of Cannabinoid-1 receptor antagonists derived from diverse classes” (Bioorg Med Chem Lett, 2009)

biological target: Cannabinoid receptor 1 (Homo sapiens, UniProt P21554); assay type: functional
Sequence (P21554 whole entry): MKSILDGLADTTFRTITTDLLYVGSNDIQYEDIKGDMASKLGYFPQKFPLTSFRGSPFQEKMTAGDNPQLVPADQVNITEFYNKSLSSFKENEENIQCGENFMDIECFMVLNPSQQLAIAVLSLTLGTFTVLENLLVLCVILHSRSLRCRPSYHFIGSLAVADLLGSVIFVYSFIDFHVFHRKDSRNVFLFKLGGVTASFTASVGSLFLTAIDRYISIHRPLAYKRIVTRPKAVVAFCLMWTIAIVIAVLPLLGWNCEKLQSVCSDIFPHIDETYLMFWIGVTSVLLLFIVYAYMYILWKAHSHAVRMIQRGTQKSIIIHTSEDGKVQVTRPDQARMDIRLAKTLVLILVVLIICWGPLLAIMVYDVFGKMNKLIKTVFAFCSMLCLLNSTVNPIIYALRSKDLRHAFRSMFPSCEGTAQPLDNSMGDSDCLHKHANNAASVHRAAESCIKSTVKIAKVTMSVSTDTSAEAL

Compound | IC50
CC(=O)Nc1cc(=O)n(C)c2nc(-c3ccc(Cl)cc3Cl)c(-c3ccc(Cl)cc3)cc12 | 112 nM
CC(=O)Nc1c(C#N)c(=O)n(C)c2nc(-c3ccc(Cl)cc3Cl)c(-c3ccc(Cl)cc3)cc12 | 35.5 nM
CC(NC(=O)C(C)(C)Oc1cccc(Cl)c1)C(Cc1ccc(Cl)cc1)c1ccccc1 (stereo not drawn) | 1.51 nM
CC(C)NC(=O)N1CCN(C(c2ccc(Cl)cc2)c2ccccc2C(F)(F)F)CC1 (stereo not drawn) | 6610 nM
CC(NS(=O)(=O)Cc1ccccc1)C(Cc1ccc(Cl)cc1)c1cccc(C#N)c1 (stereo not drawn) | 20.9 nM
CC(NS(=O)(=O)C(C)(C)C)C(Cc1ccc(Cl)cc1)c1cccc(C#N)c1 (stereo not drawn) | 1700 nM
CC(NS(C)(=O)=O)C(Cc1ccc(Cl)cc1)c1cccc(C#N)c1 (stereo not drawn) | 2040 nM
CC(C)NC(=O)N1CCN(C(c2ccc(Cl)cc2)c2ccccc2Cl)CC1 (stereo not drawn) | 398 nM
Cc1ccccc1C(c1ccc(Cl)cc1)N1CCN(C(=O)NC(C)C)CC1 (stereo not drawn) | 2190 nM
CC(NC(=O)C(C)(C)Oc1cc(F)cc(F)c1)C(Cc1ccc(Cl)cc1)c1ccccc1 (stereo not drawn) | 1.12 nM
CC(C)NC(=O)N1CCN(C(c2ccc(Br)cc2)c2ccccc2Cl)CC1 (stereo not drawn) | 776 nM
O=C(NCC1CCC1)N1CCN(C(c2ccc(Cl)cc2)c2ccc(Cl)cc2)CC1 | 3470 nM
CC(NC(=O)C(C)(C)Oc1ccc(Cl)cn1)C(Cc1ccc(Cl)cc1)c1ccccc1 (stereo not drawn) | 1.32 nM
